This passage reports IC50 results from patent US11827628B2, “Compositions and methods for inhibition of the JAK pathway” (Rigel Pharmaceuticals, Inc., priority 2005, dated 2023).

Assay [1] relates to IL-4 stimulated expression of CD23 in human Ramos B cells (JAK-1 and JAK-3). Put plainly: Assay for Ramos B-Cell Line Stimulated with IL-4 (CD23 upregulation, FACS). It is filed as cell-based. Conditions: Ramos B cells stimulated with IL-4, CD23 expression by FACS, read-out: IC50, Example 41. The method, boiled down: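 Read-out is surface CD23 by FACS after anti-CD23-PE staining, giving IC50. Before this, cells were stimulated 20-24 h with 50 units/mL (final) human IL-4, following 1 h compound or vehicle pre-treatment at 37 °C; log-phase Ramos B cells, 5×10^4 per well in 5% serum RPMI.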
In general terms: A flow cytometer gives signals particle by particle.

Another assay relates to Primary human T-cells. Description: Primary Human T-Cell Proliferation Assay Stimulated with IL-2 (CellTiter-Glo). It is filed as cell-based. Conditions: primary human T-cells stimulated with IL-2, proliferation, read-out: IC50, Example 42. In short, it runs like this:
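IC50 derived from CellTiter-Glo ATP signal after 72 hours of IL-2-driven proliferation at 37° C. Cells: primary human T-cells from blood, stimulated beforehand 3-4 days on anti-CD3/anti-CD28 with IL-2, then rested from IL-2 before compound exposure in duplicate; IL-2-free wells served as unstimulated control.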
Background: Cellular ATP, detected with luciferase, serves as a proxy for viable cell number.

Each structure is given as a SMILES string. Where two headings read alike, the source gives them in different places.

By IC50 is commonly meant the concentration needed to halve the response being measured. In the case of `Cc1ccc(Nc2ncc(F)c(Nc3ccc(Cn4ccnc4C)cc3)n2)cc1S(N)(=O)=O` [III-91, N2-(3-Aminosulfonyl-4-methylphenyl)-5-fluoro-N4-[4-(2-methyl-1-imidazolylmethyl)phenyl]-2,4-pyrimidinediamine], the 50% inhibitory concentration (IC50) in assay [1] turned out to be 143 nM; in the assay with Primary human T-cells it was 467 nM.
Regarding `Cc1nccn1Cc1ccc(Nc2nc(Nc3ccc(S(N)(=O)=O)cc3)ncc2F)cc1` [III-92, N2-(4-Aminosulfonylphenyl)-5-fluoro-N4-[4-(2-methyl-1-imidazolylmethyl)phenyl]-2,4-pyrimidinediamine], the figures for the half-inhibitory concentration (IC50) (in assay [1]; in the assay on Primary human T-cells) were 323 nM and 1900 nM, respectively.
Take `CNS(=O)(=O)c1cc(Nc2ncc(F)c(Nc3ccc(Cn4ccnc4C)cc3)n2)ccc1C` [III-93, 5-Fluoro-N2-[3-(N-methylaminosulfony)-4-methylphenyl]-N4-[4-(2-methyl-1-imidazolylmethyl)phenyl]-2,4-pyrimidinediamine]: the IC50 in assay [1] came to 173 nM; in the assay on Primary human T-cells, 819 nM.
On to `Cc1nccn1Cc1ccc(Nc2nc(Nc3cccc(S(N)(=O)=O)c3)ncc2F)cc1` [III-94, N2-(3-Aminosulfonylphenyl)-5-fluoro-N4-[4-(2-methyl-1-imidazolylmethyl)phenyl]-2,4-pyrimidinediamine], for which the concentration for half-maximal inhibition (IC50) in assay [1] was 162 nM; in the assay on Primary human T-cells, 716 nM.
For `NS(=O)(=O)c1ccc(Nc2ncc(F)c(Nc3ccc(Cn4ccnn4)cc3)n2)cc1` [III-96] the same measures were 3330 nM and 2190 nM.
For `CNS(=O)(=O)c1cc(Nc2ncc(F)c(Nc3ccc(Cn4ccnn4)cc3)n2)ccc1C` [III-98, 5-Fluoro-N2-[3-(N-methylaminosulfony)-4-methylphenyl]-N4-{4-[1-(1,2,3-thazolyl)methyl]phenyl}-2,4-pyrimidinediamine] the same measures were 117 nM and 457 nM.
On to `NS(=O)(=O)c1ccc(Nc2ncc(F)c(Nc3ccc(Cn4cncn4)cc3)n2)cc1` [III-99, N2-(4-Aminosulfonylphenyl)-5-fluoro-N4-{4-[1-(1,2,4-thazolyl)methyl]phenyl}-2,4-pyrimidinediamine], for which the IC50 in assay [1] was 1030 nM; with Primary human T-cells, 2170 nM.
For `Cc1ccc(Nc2ncc(F)c(Nc3ccc(Cn4cncn4)cc3)n2)cc1S(N)(=O)=O` [III-101, N2-(3-Aminosulfonyl-4-methylphenyl)-5-fluoro-N4-{4-[1-(1,2,4-thazolyl)methyl]phenyl}-2,4-pyrimidinediamine], in that order: 240 nM and 446 nM.
`CNS(=O)(=O)c1cc(Nc2ncc(F)c(Nc3ccc(Cn4cncn4)cc3)n2)ccc1C` [III-102, 5-Fluoro-N2-[3-(N-methylaminosulfony)-4-methylphenyl]-N4-{4-[1-(1,2,4-thazolyl)methyl]phenyl}-2,4-pyrimidinediamine]: the concentration for half-maximal inhibition (IC50) amounted to 302 nM in assay [1] and 486 nM with Primary human T-cells.
Consider `CCNC(=O)NCc1cccc(Nc2nc(Nc3ccc(S(N)(=O)=O)cc3)ncc2F)c1` [III-116, N2-(4-aminosulfonyl)phenyl-N4-(3-ethylaminocarbonylaminomethyl)phenyl-5-fluoro-2,4-pyrimidinediamine], for which the IC50 worked out at 197 nM in assay [1] and 3950 nM in the assay on Primary human T-cells.
As for `CCNC(=O)NCc1cccc(Nc2nc(Nc3ccc(C)c(S(N)(=O)=O)c3)ncc2F)c1` [III-118, N2-(3-aminosulfonyl-4-methyl)phenyl-N4-(3-ethylaminocarbonylaminomethyl)phenyl-5-fluoro-2,4-pyrimidinediamine], the 50% inhibitory concentration (IC50) in assay [1] amounted to 624 nM; in the assay with Primary human T-cells, 2290 nM.
For `CCNC(=O)NCc1ccc(Nc2nc(Nc3cccc(S(N)(=O)=O)c3)ncc2F)cc1` [III-120, N2-(3-Aminosulfonylphenyl]-N4-(4-ethylaminocarbonylaminomethylphenyl)-5-fluoro-2,4-pyrimidinediamine], the IC50 turned out to be 655 nM in assay [1] (Homo sapiens, Ramos) and 554 nM in the assay with Primary human T-cells (Homo sapiens, T-cell).
Take `CCNC(=O)NCCc1ccc(Nc2nc(Nc3cccc(S(N)(=O)=O)c3)ncc2F)cc1` [III-123, N2-(3-aminosulfonyl)phenyl-N4-[4-(2-ethylaminocarbonylamino)ethyl]phenyl-5-fluoro-2,4-pyrimidinediamine]: the figures for the 50% inhibitory concentration (IC50) (in assay [1]; in the assay with Primary human T-cells) were 173 nM and 1390 nM, respectively.
For `CCCN(Cc1ccc(Nc2nc(Nc3cccc(S(N)(=O)=O)c3)ncc2F)cc1)C(N)=O` [III-126, N2-(3-aminosulfonyl)phenyl-N4-[4-(N-carbamoyl-N-propyl)aminomethyl]phenyl-5-fluoro-2,4-pyrimidinediamine], in that order: 197 nM and 470 nM.
For `CCCN(Cc1ccc(Nc2nc(Nc3ccc(C)c(S(N)(=O)=O)c3)ncc2F)cc1)C(N)=O` [III-127, N2-(3-aminosulfonyl-4-methyl)phenyl-N4-[4-(N-carbamoyl-N-propyl)aminomethyl]phenyl-5-fluoro-2,4-pyrimidinediamine], the half-inhibitory concentration (IC50) came to 198 nM in assay [1] and 612 nM with Primary human T-cells.
On to `NS(=O)(=O)c1ccc(Nc2ncc(F)c(Nc3ccc(-c4cnco4)cc3)n2)cc1` [IV-8, N2-(4-Aminosulfonylphenyl)-5-fluoro-N4-[4-(1,3-oxazol-5-yl)phenyl]-2,4-pyrimidinediamine], for which the IC50 in assay [1] (Homo sapiens, Ramos) is 166 nM; with Primary human T-cells (Homo sapiens, T-cell), 627 nM.
For `CN(C)S(=O)(=O)c1cccc(Nc2nc(Nc3cccc(S(N)(=O)=O)c3)ncc2F)c1` [IV-9, N2-(3-Aminosulfonylphenyl)-5-fluoro-N4-[3-(N,N-dimethylaminosulfonyl)phenyl]-2,4-pyrimidinediamine], in that order: 190 nM and 1000 nM.
Take `Cc1ccc(Nc2ncc(F)c(Nc3cccc(S(=O)(=O)N(C)C)c3)n2)cc1S(N)(=O)=O` [IV-10, N2-(3-Aminosulfonyl-4-methylphenyl)-5-fluoro-N4-[3-(N,N-dimethylaminosulfonyl)phenyl]-2,4-pyrimidinediamine]: the IC50 is 135 nM in assay [1] (Homo sapiens, Ramos) and 714 nM in the assay with Primary human T-cells (Homo sapiens, T-cell).
For `CNS(=O)(=O)c1cccc(Nc2nc(Nc3ccc(C)c(S(N)(=O)=O)c3)ncc2F)c1` [IV-12, N2-(3-Aminosulfonyl-4-methylphenyl)-5-fluoro-N4-[3-(N-methylaminosulfonyl)phenyl]-2,4-pyrimidinediamine] the same measures were 257 nM and 1220 nM.
In the case of `N#Cc1cc2cc(Nc3nc(Nc4ccc(Cl)c(S(N)(=O)=O)c4)ncc3F)ccc2o1` [IX-21], the IC50 in assay [1] was 271 nM; with Primary human T-cells it was 2740 nM.
Turning to `CC(C)c1ccc(Nc2ncc(F)c(Nc3ccc4oc(C#N)cc4c3)n2)cc1S(N)(=O)=O` [IX-22, N2-(3-Aminosulfonyl-4-iso-propylphenyl)-N4-(2-cyanobenzofuran-5-yl)-5-fluoro-2,4-pyrimidinediamine], the IC50 in assay [1] (Homo sapiens, Ramos) turned out to be 295 nM; with Primary human T-cells (Homo sapiens, T-cell), 1590 nM.
Consider `CC(=O)N1CCN(C(=O)c2ccc(Nc3nc(Nc4ccc(C)c(S(N)(=O)=O)c4)ncc3F)cc2)CC1` [IX-24, N4-[4-(1-Acetyl-4-piperizinyl)carbonylphenyl]-N2-(3-Aminosulfonyl-4-methylphenyl)-5-fluoro-2,4-pyrimidinediamine], for which the IC50 amounted to 6330 nM in assay [1] and 38400 nM in the assay with Primary human T-cells.
For the compound `Cc1ccc(Nc2ncc(F)c(Nc3ccc(C(=O)N4CCN(C)CC4)cc3)n2)cc1S(N)(=O)=O` [IX-27, N2-(3-Aminosulfonyl-4-methylphenyl)-5-fluoro-N4-[4-(4-methylpiperazin-1-ylcarbonyl)phenyl]-2,4-pyrimidinediamine], the IC50 stood at 1380 nM in assay [1] (Homo sapiens, Ramos) and 7630 nM in the assay with Primary human T-cells (Homo sapiens, T-cell).
With `CN1CCN(C(=O)c2ccc(Nc3nc(Nc4cccc(S(N)(=O)=O)c4)ncc3F)cc2)CC1` [IX-28, N2-(3-Aminosulfonylphenyl)-5-fluoro-N4-[4-(4-methylpiperazin-1-ylcarbonyl)phenyl]-2,4-pyrimidinediamine], the IC50 in assay [1] (Homo sapiens, Ramos) turned out to be 1660 nM; in the assay on Primary human T-cells (Homo sapiens, T-cell), 10100 nM.
For the compound `Cc1ccc(Nc2ncc(F)c(Nc3ccc(C(=O)N4CCN(S(C)(=O)=O)CC4)cc3)n2)cc1S(N)(=O)=O` [IX-30, N2-(3-Aminosulfonyl-4-methylphenyl)-5-fluoro-N4-[4-(1-methanesulfonyl-4-piperizinyl)carbonylphenyl]-2,4-pyrimidinediamine], the figures for the half-maximal inhibitory concentration (IC50) (in assay [1]; with Primary human T-cells) were 1940 nM and 6800 nM, respectively.
Regarding `COC(=O)c1ccc(Nc2nc(Nc3ccc(C)c(S(N)(=O)=O)c3)ncc2F)s1` [IX-46, N2-(3-Aminosulfonyl-4-methylphenyl)-5-fluoro-N4-(5-methoxycarbonyl-thiophene-2-yl)-2,4-pyrimidinediamine], the half-maximal inhibitory concentration (IC50) stood at 73.9 nM in assay [1] (Homo sapiens, Ramos) and 1390 nM with Primary human T-cells (Homo sapiens, T-cell).
For `COC(=O)c1ccc(Nc2nc(Nc3cccc(S(N)(=O)=O)c3)ncc2F)s1` [IX-47, N2-(3-Aminosulfonylphenyl)-5-fluoro-N4-(5-methoxycarbonyl-thiophene-2-yl)-2,4-pyrimidinediamine], in that order: 223 nM and 2390 nM.
For `COC(=O)c1ccc(Nc2nc(Nc3ccc(S(N)(=O)=O)cc3)ncc2F)s1` [IX-49, N2-(4-Aminosulfonylphenyl)-5-fluoro-N4-(5-methoxycarbonyl-thiophene-2-yl)-2,4-pyrimidinediamine], in that order: 96.5 nM and 61900 nM.
Take `CNS(=O)(=O)c1cc(Nc2ncc(F)c(Nc3ccc(-c4ccccn4)c(OCCl)c3)n2)ccc1C` [IX-54, 5-Fluoro-N2-[3-N-(methyl)aminosulfonyl-4-methylphenyl]-N4-[4-(2-pyridinyl)-3-chloromethyleneoxyphenyl]-2,4-pyrimidinediamine]: the half-maximal inhibitory concentration (IC50) was 174 nM in assay [1] and 2470 nM in the assay with Primary human T-cells.
